Measurements from US8273775B2, “Non-steroidal brassinosteroid mimetic” (priority 2006, dated 2012).

Test system: gene expression in Col-0 seedling shoots
Assay: Microarray analysis (ATH1 Affymetrix) after BL or abrasin treatment
Type: in vivo, Arabidopsis
Conditions: 120 min
Method: FIG. 14: Clustering of gene expression profiles by QT-clust analysis. Clusters illustrating the major patterns of the data sets. Points: BIK-30: 30 μM abrasin 30 min; BL-30: 1 μM brassinolide 30 min; DMSO-30: control DMSO 30 min; BIK-120: 30 μM abrasin 120 min; BL-120: 1 μM brassinolide 120 min; DMSO-120: control DMSO 120 min.
Col-0 seeds were germinated vertically on ½ MS medium for 7 days under 16 h light/8 h dark cycles. The seedlings were overlaid with liquid ½ MS medium containing 1 μM brassinolide (BL, Fuji Chemical Industries, Ltd., Toyama, Japan), 30 μM abrasin (BIK, ChemBridge Corporation) and DMSO and treated for 30 and 120 min. The shoot parts were collected for RNA isolation. All sampling points were performed in three independent experiments. RNA was extracted using RNeasy kit (Qiagene). […] total RNA per array was used to hybridise the ATH1 Affymetrix Arabidopsis arrays according to standard procedure. The overrepresentation analyses were performed using BiNGO software (Maere et al., 2005).
We performed a microarray analysis using the Arabidopsis whole genome chip (Affymetix) to determine whether abrasin activated the expression of BR-inducible genes at transcriptional level. Wild-type Col-0 seedlings were exposed to 1 μM BL, 30 μM ABRASIN and DMSO (mock-treatment) for two time points (30 min and 120 min) and the shoot parts were collected for RNA isolation. The analysis of the variance of the normalized gene expression data took in account the variability parameters affecting the expression level: type of hormone treatment, duration of treatment and the interaction between these two.

`O=C(O)CCC(=O)Nc1ccc(Br)cn1` [abrasin, 4-[(5-bromo-2-pyridinyl)amino]-4-oxobutanoic acid] was tested, and the “Fold-change AT5G60270 lectin protein kinase family protein” value was 2.56, the “Fold-change AT5G60630 expressed protein” value was 2.20 and the “Fold-change AT5G61600 encodes a member of the ERF (ethylene response factor)” value was 2.04. For the same molecule, the “Fold-change AT5G62360 invertase/pectin methylesterase inhibitor family protein” value was 0.25, the “Fold-change AT5G65310 homeobox-leucine zipper protein 5 (HB-5)/HD-ZIP transcription factor 5” value was 0.20 and the “Fold-change AT5G66420 expressed protein” value was 0.42. The “Fold-change AT5G66590 allergen V5/Tpx-1-related family protein” value was 0.31, the “Fold-change AT5G67450 zinc finger (C2H2 type) protein 1 (AZF1)” value was 1.82 and the “Fold-change of gene AT4G16140 (proline-rich family protein)” value (245479_at, Cluster 6) was 1.51. The “Fold-change of gene AT4G15260 (UDP-glucoronosyl/UDP-glucosyl transferase family protein)” value (245543_at, Cluster 7) was 1.52, the “Fold-change of gene AT5G09440 (phosphate-responsive protein, putative)” value (245885_at, Cluster 5) was 0.13 and the “Fold-change of gene AT1G77380 (amino acid carrier)” value (246389_at, Cluster 10) was 0.99. The “Fold-change of gene AT5G15740 (expressed protein)” value (246516_at, Cluster 5) was 0.49, the “Fold-change of gene AT5G65300 (expressed protein)” value (247177_at, Cluster 5) was 0.25 and the “Fold-change of gene AT5G64890 (expressed protein)” value (247205_at, Cluster 10) was 2.18. The “Fold-change of gene AT5G63790 (no apical meristem (NAM) family protein)” value (247351_at, Cluster 9) was 0.69, the “Fold-change of gene AT5G62630 (expressed protein)” value (247444_at, Cluster 7) was 2.28 and the “Fold-change of gene AT5G60850 (Dof-type zinc finger domain-containing protein)” value (247601_at, Cluster 10) was 0.64. The “Fold-change of gene AT5G59510 (expressed protein)” value (247704_at, Cluster 9) was 0.60, the “Fold-change of gene AT5G58660 (oxidoreductase. 2OG-Fe(II) oxygenase family protein)” value (247774_at, Cluster 5) was 2.15 and the “Fold-change of gene AT5G54120 (expressed protein)” value (248190_at, Cluster 5) was 0.38. The “Fold-change of gene AT5G54130 (calcium-binding EF hand family protein)” value (248191_at, Cluster 5) was 0.31, the “Fold-change of gene AT5G52900 (expressed protein)” value (248282_at, Cluster 6) was 0.96 and the “Fold-change of gene AT5G49100 (expressed protein)” value (248646_at, Cluster 9) was 0.62. For the same molecule, the “Fold-change of gene AT5G18060 (auxin-responsive protein)” value (250012_x_at, Cluster 6) was 0.46, the “Fold-change of gene AT5G09800 (U-box domain-containing protein)” value (250493_at, Cluster 9) was 0.80 and the “Fold-change of gene AT5G08565 (expressed protein)” value (250537_at, Cluster 8) was 0.41. The “Fold-change of gene AT5G03670 (expressed protein)” value (250907_at, Cluster 5) was 0.32, the “Fold-change of gene AT5G01740 (expressed protein)” value (251072_at, Cluster 5) was 0.34 and the “Fold-change of gene AT3G63380 (calcium-transporting ATPase)” value (251176_at, Cluster 10) was 0.11. The “Fold-change of gene AT3G60690 (auxin-responsive family protein)” value (251342_at, Cluster 9) was 0.29, the “Fold-change of gene AT3G45610 (Dof-type zinc finger domain)” value (252586_at, Cluster 10) was 2.56 and the “Fold-change of gene AT3G44610 (protein kinase family protein)” value (252646_at, Cluster 5) was 0.38. The “Fold-change of gene AT4G34760 (auxin-responsive family protein)” value (253255_at, Cluster 6) was 1.61, the “Fold-change of gene AT4G34138 (UDP-glucoronosyl/UDP-glucosyl transferase family protein)” value (253281_at, Cluster 7) was 3.16 and the “Fold-change of gene AT4G31910 (transferase family protein)” value (253483_at, Cluster 5) was 1.60. For the same molecule, the “Fold-change of gene AT4G30410 (expressed protein)” value (253617_at, Cluster 5) was 0.45, the “Fold-change of gene AT4G30450 (glycine-rich protein)” value (253629_at, Cluster 5) was 0.39 and the “Fold-change of gene AT4G26200 (1-aminocyclopropane-1-carboxylate synthase)” value (253999_at, Cluster 9) was 0.24. For the same molecule, the “Fold-change of gene AT4G03400 (auxin-responsive GH3 family protein)” value (255403_at, Cluster 6) was 0.77, the “Fold-change of gene AT4G02700 (sulfate transporter)” value (255443_at, Cluster 7) was 2.16 and the “Fold-change of gene AT1G22190 (AP2 domain-containing transcription factor)” value (255926_at, Cluster 8) was 0.50. The “Fold-change of gene AT1G66140 (zinc finger (C2H2 type) family protein)” value (256528_at, Cluster 6) was 0.61, the “Fold-change of gene AT3G25655 (expressed protein)” value (256762_at, Cluster 8) was 0.15 and the “Fold-change of gene AT3G21420 (oxidoreductase, 2OG-Fe(II) oxygenase family protein)” value (256818_at, Cluster 7) was 2.39. The “Fold-change of gene AT3G18280 (protease inhibitor/seed storage/lipid transfer protein)” value (257066_at, Cluster 5) was 0.39, the “Fold-change of gene AT1G29440 (auxin-responsive family protein)” value (257506_at, Cluster 6) was 0.47 and the “Fold-change of gene AT3G29200 (chorismate mutase, chloroplast (CM1))” value (257746_at, Cluster 5) was 0.49. For the same molecule, the “Fold-change of gene AT1G13260 (DNA-binding protein RAV1 (RAV1))” value (259364_at, Cluster 8) was 0.46, the “Fold-change of gene AT1G29500 (auxin-responsive protein)” value (259773_at, Cluster 6) was 0.61 and the “Fold-change of gene AT1G29510 (auxin-responsive protein)” value (259783_at, Cluster 6) was 0.50. For the same molecule, the “Fold-change of gene AT1G29450 (auxin-responsive protein)” value (259784_at, Cluster 6) was 0.61, the “Fold-change of gene AT1G29460 (auxin-responsive protein)” value (259787_at, Cluster 6) was 0.44 and the “Fold-change of gene AT1G76690; AT1G76680 ([AT1G76690, 12-oxophytodienoate reductase (OPR2))” value (259875_s_at, Cluster 7) was 6.14. For the same molecule, the “Fold-change of gene AT1G76620 (expressed protein)” value (259985_at, Cluster 8) was 0.28, the “Fold-change of gene AT1G63720 (expressed protein)” value (260243_at, Cluster 10) was 0.16 and the “Fold-change of gene AT1G48100 (glycoside hydrolase family 28 protein)” value (260727_at, Cluster 8) was 0.38. The “Fold-change of gene AT1G12200 (flavin-containing monooxygenase family protein)” value (261023_at, Cluster 7) was 2.20, the “Fold-change of gene AT1G12845 (expressed protein)” value (261203_at, Cluster 6) was 2.71 and the “Fold-change of gene AT1G15550 (gibberellin 3-beta-dioxygenase)” value (261768_at, Cluster 6) was 1.17. The “Fold-change of gene AT1G80840 (WRKY family transcription factor)” value (261892_at, Cluster 9) was 0.20, the “Fold-change of gene AT1G80080 (leucine-rich repeat family protein)” value (262040_at, Cluster 6) was 2.07 and the “Fold-change of gene AT1G80130 (expressed protein)” value (262050_at, Cluster 8) was 0.18. The “Fold-change of gene AT1G21680 (expressed protein)” value (262505_at, Cluster 10) was 2.01, the “Fold-change of gene AT1G34245 (expressed protein)” value (262543_at, Cluster 6) was 5.18 and the “Fold-change of gene AT1G78460 (SOUL heme-binding family protein)” value (263126_at, Cluster 7) was 2.50. The “Fold-change of gene AT1G78820; AT1G78830 ([AT1G78820, curculin-like (mannose-binding) lectin family protein)” value (264279_s_at, Cluster 7) was 1.84, the “Fold-change of gene AT2G42380 (bZIP transcription factor family protein)” value (265877_at, Cluster 6) was 0.80 and the “Fold-change of gene AT2G45080 (cyclin family protein)” value (266124_at, Cluster 8) was 0.10.
